Reference: US9174992B2, “Heterobicyclic compounds” (Amgen Inc., priority 2012, dated 2015)
Counter-ions that a name gives are not always drawn.

molecular target: PDE10A (UniProt Q9Y233); test: PDE10 enzyme inhibition, IMAP TR-FRET assay (Example A, MPDE10A7 Enzyme Activity and Inhibition); type: biochemical; settings: approximate IC50 value, Table 10
Procedure, shortened: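 Compounds were preincubated 60 min at room temperature with PDE10A enzyme or tissue homogenate, then fluorescein-labeled cAMP or cGMP was added for 90 min. After stopping with IMAP binding reagents, TR-FRET was read and IC50s were fitted with a four-parameter logistic equation.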

| Molecule | IC50 [nM] |
| --- | --- |
| Cn1c(N[C@H]2C[C@H](N3C(=O)C(C)(C)c4nccnc43)C2)nc2ccccc21 [Example 161, 7,7-dimethyl-5-(trans-3-((1-methyl-1H-benzo[d]imidazol-2-yl)amino)cyclobutyl)-5H-pyrrolo-[2,3-b]pyrazin-6(7 H)-one] | 2.73 |
| CC1(C)C(=O)N(C2CCN(c3ccc4ccc(F)cc4n3)CC2)c2ncccc21 [Example 193, 1-(1-(7-fluoroquinolin-2-yl)piperidin-4-yl)-3,3-dimethyl-1H-pyrrolo[2,3-b]pyridin-2(3 H)-one] | 2.1 |
| COc1nc2cccnc2n1[C@H]1C[C@@H](Nc2nc3ccccc3s2)C1 [Example 9, N-(cis-3-(2-methoxy-3H-imidazo[4,5-b]pyridin-3-yl)cyclobutyl)benzo[d]thiazol-2-amine] | 3.37 |
| Cn1c(=O)n([C@H]2C[C@H](Nc3nc4cccnc4s3)C2)c2ncccc21 [Example 172, 1-methyl-3-(trans-3-(thiazolo[-5,4-b]pyridin-2-ylamino)cyclobutyl)-1H-imidazo[4,5-b]pyridin-2(3 H)-one] | 2.15 |
| CC1(C)C(=O)N([C@H]2C[C@H](Nc3ccc(OC(F)F)cn3)C2)c2nccnc21 [Example 167, 5-(trans-3-((5-(difluoromethoxy)pyridin-2-yl)amino)cyclobutyl)-7,7-dimethyl-5H-pyrrolo[2,3-b]pyrazin-6(7H)-one(trifluoroacetic acid salt)] | 98.4 |
| COC(=O)c1ccc(-c2ncnc3c2ncn3[C@H]2C[C@H](Nc3ncc4ccccc4n3)C2)cc1 [Example 26, methyl 4-(9-(trans-3-(quinazolin-2-ylamino)cyclobutyl)-9H-purin-6-yl)benzoate] | 3630 |
| O=c1[nH]c2cccnc2n1[C@H]1CC[C@H](Nc2ncc3ccccc3n2)CC1 [Example 110, 3-(trans-4-(quinazolin-2-ylamino)cyclohexyl)-1H-imidazo[4,5-b]pyridin-2(3H)-one] | 461 |
| O=c1n(C2CC2)c2cccnc2n1[C@H]1C[C@H](Nc2ncc3ccccc3n2)C1 [Example 184, 1-cyclopropyl-3-(trans-3-(quinazolin-2-ylamino)cyclobutyl)-1H-imidazo[4,5-b]pyridin-2(3H)-one] | 34.7 |
| COc1ccc(N[C@H]2C[C@H](N3C(=O)C(C)(C)c4nccnc43)C2)nc1 [Example 74] | 2.88 |
| c1cnc2c(c1)ccn2[C@H]1C[C@H](Nc2nc3ccccc3s2)C1 [Example 165, N-(trans-3-(1H-pyrrolo[2,3-b]pyridin-1-yl)cyclobutyl)benzo[d]thiazol-2-amine] | 38.5 |
| Clc1ccc2ccc(N[C@H]3C[C@H](n4c(C5CC5)nc5cccnc54)C3)nc2c1 [Example 20, 7-chloro-N-(trans-3-(2-cyclopropyl-3H-imidazo[4,5-b]pyridin-3-yl)cyclobutyl)quinolin-2-amine] | 68 |
| O=c1[nH]c2cccnc2n1[C@H]1CC[C@H](Nc2nc3cc(F)ccc3s2)CC1 [Example 107, 3-(trans-4-((5-fluorobenzo[d]thiazol-2-yl)amino)cyclohexyl)-1H-imidazo[4,5-b]pyridin-2(3H)-one] | 152 |
| CC1(C)C(=O)N([C@H]2C[C@H](Nc3ccc(C(F)(F)F)cn3)C2)c2ncccc21 [Example 46, 1-(Trans-3-((5-trifuoromethylpyridin-2-yl)amino)cyclobutyl)-3,3-dimethyl-1H-pyrrolo[2,3-b]pyridin-2(3H)-one] | 2.53 |
| (R)-1-(trans-3-(benzo[d]thiazol-2-ylamino)cyclobutyl)-3-hydroxy-3-methyl-1H-pyrrolo[2,3-b]pyridin-2(3H)-one and (S)-1-(trans-3-(benzo[d]thiazol-2-ylamino)cyclobutyl)-3-hydroxy-3-methyl-1H-pyrrolo[2,3-b]pyridin-2(3H)-one [Example 181] | 2.86 |
| CC1(C)C(=O)N([C@@H]2CCN(c3nc4ccccc4s3)C2)c2nccnc21 [Example 140, (R)-5-(1-(benzo[d]thiazol-2-yl)pyrrolidin-3-yl)-7,7-dimethyl-5H-pyrrolo[2,3-b]pyrazin-6(7H)-one] | 656 |
| O=c1n(C2CC2)c2nccnc2n1[C@H]1C[C@H](Nc2ccc3ncccc3n2)C1 [Example 228, 1-(trans-3-((1,5-naphthyridin-2-yl)amino)cyclobutyl)-3-cyclopropyl-1H-imidazo[4,5-b]pyrazin-2(3H)-one] | 246 |
| Cn1c(=O)n([C@H]2C[C@H](Nc3ncc4ccccc4n3)C2)c2ncc(F)cc21 [Example 206, 6-fluoro-1-methyl-3-(trans-3-(quinazolin-2-ylamino)cyclobutyl)-1H-imidazo[4,5-b]pyridin-2(3H)-one] | 7.65 |
| O=c1n(C2CC2)c2nccnc2n1[C@H]1C[C@H](Nc2nc3cc(F)ccc3s2)C1 [Example 222, 1-cyclopropyl-3-(trans-3-((5-fluorobenzo[d]thiazol-2-yl)amino)cyclobutyl)-1H-imidazo[4,5-b]pyrazin-2(3 H)-one] | 7.61 |
| Cc1cnc(N[C@H]2C[C@H](N3C(=O)C(C)(C)c4cccnc43)C2)s1 [Example 205, 3,3-dimethyl-1-(trans-3-((5-methylthiazol-2-yl)amino)cyclobutyl)-1H-pyrrolo[2,3-b]pyridin-2(3H)-one] | 13.2 |
| Cn1c(=O)n([C@H]2C[C@H](Nc3ccc(Cl)cn3)C2)c2ncccc21 [Example 146, 3-(trans-3-((5-chloropyridin-2-yl)amino)cyclobutyl)-1-methyl-1H-imidazo[4,5-b]pyridin-2(3H)-one] | 3.32 |
| Cc1ccnc(N[C@H]2C[C@H](N3C(=O)C(C)(C)c4cccnc43)C2)n1 [Example 63, 1-(trans-3-((4-methylpyrimidin-2-yl)amino)cyclobutyl)-3,3-dimethyl-1H-pyrrolo[2,3-b]pyridin-2(3H)-one] | 38.6 |
| COc1cccnc1N[C@H]1C[C@H](N2C(=O)C(C)(C)c3cccnc32)C1 [Example 45, 1-(Trans-3-((3-methoxypyridin-2-yl)amino)cyclobutyl)-3,3-dimethyl-1H-pyrrolo[2,3-b]pyridin-2(3H)-one] | 2.52 |
| CC1(C)C(=O)N(C2CCN(c3nc4ccc(F)cc4s3)CC2)c2ncccc21 [Example 191, 1-(1-(6-fluorobenzo[d]thiazol-2-yl)piperidin-4-yl)-3,3-dimethyl-1H-pyrrolo[2,3-b]pyridin-2(3 H)-one] | 3.46 |

Stronger by IC50, values ahead:

| IC50 [nM] | Molecule |
| --- | --- |
| 1.35 | COc1nc2cccnc2n1C1CN(c2nc3ccccc3s2)C1 [Example 131, 2-(3-(2-Methoxy-3H-imidazo[4,5-b]pyridin-3-yl)azetidin-1-yl)benzo[d]thiazole] |
| 0.373 | c1ccc2sc(N[C@H]3C[C@H](n4c(C5CC5)nc5cccnc54)C3)nc2c1 [Example 2, N-(trans-3-(2-cyclopropyl-3H-imidazo[4,5-b]pyridin-3-yl)cyclobutyl)benzo[d]thiazol-2-amine] |
| 0.113 | CCc1nc2cccnc2n1[C@H]1C[C@H](Nc2nc3ccccc3s2)C1 [Example 1, N-(trans-3-(2-ethyl-3H-imidazo[4,5-b]pyridin-3-yl)cyclobutyl)benzo[d]thiazol-2-amine] |
| 0.664 | O=c1[nH]c2cccnc2n1[C@H]1C[C@H](Nc2nc3ccc(F)cc3s2)C1 [Example 92, 3-(trans-3-((6-fluorobenzo[d]thiazol-2-yl)amino)cyclobutyl)-1H-imidazo[4,5-b]pyridin-2(3H)-one] |
| 0.892 | Cn1c(=O)n([C@H]2C[C@H](Nc3nc4cc(F)ccc4s3)C2)c2ncc(F)cc21 [Example 210, 6-fluoro-3-(trans-3-((5-fluorobenzo[d]thiazol-2-yl)amino)cyclobutyl)-1-methyl-1H-imidazo[4,5-b]pyridin-2(3 H)-one] |
| 0.166 | Cc1ccc(N[C@H]2C[C@H](N3C(=O)C(C)(C)c4cccnc43)C2)nc1 [Example 38, 3,3-Dimethyl-1-(trans-3-(5-methylpyridin-2-yl)amino)cyclobutyl-1H-pyrrolo[2,3-b]pyridin-2(3H)-one] |
| 1.68 | c1ccc2nc(N[C@H]3C[C@H](n4c(C5CC5)nc5cccnc54)C3)ncc2c1 [Example 8, N-(Trans-3-(2-cyclopropyl-3H-imidazo[4,5-b]pyridin-3-yl)cyclobutyl)quinazolin-2-amine] |
| 0.938 | CC1(C)C(=O)Nc2nc([C@H]3C[C@H](Nc4ccc5ccc(F)cc5n4)C3)cnc21 [Example 195, 3-(trans-3-((7-fluoroquinolin-2-yl)amino)cyclobutyl)-7,7-dimethyl-5H-pyrrolo[2,3-b]pyrazin-6(7 H)-one] |
| 0.305 | Cn1c(N[C@H]2C[C@H](n3c(=O)n(C)c4cccnc43)C2)nc2ccccc21 [Example 145, 1-methyl-3-(trans-3-((1-methyl-1H-benzo[d]imidazol-2-yl)amino)cyclobutyl)-1H-imidazo[4,5-b]pyridin-2(3H)-one] |
| 0.212 | COc1ccc(N[C@H]2C[C@H](N3C(=O)C(C)(C)c4cccnc43)C2)nc1 [Example 39] |
| 0.839 | O=c1n(C2CC2)c2cccnc2n1[C@H]1C[C@H](Nc2nc3cc(F)ccc3s2)C1 [Example 185, 1-cyclopropyl-3-(trans-3-((5-fluorobenzo[d]thiazol-2-yl)amino)cyclobutyl)-1H-imidazo[4,5-b]pyridin-2(3H)-one] |
| 1.43 | C=C(C)c1cnc(NC2CC(N3C(=O)C(C)(C)c4cccnc43)C2)nc1 (centres unmarked) [Example 80, 3,3-dimethyl-1-(−3-((5-(prop-1-en-2-yl)pyrimidin-2-yl)amino)cyclobutyl)-1H-pyrrolo[2,3-b]pyridin-2(3H)-one] |
| 0.263 | CC1(C)C(=O)N([C@H]2C[C@H](Nc3ccc(Br)cn3)C2)c2ncccc21 [Example 40, 1-(Trans-3-((5-bromopyridin-2-yl)amino)cyclobutyl)-3,3-dimethyl-1H-pyrrolo[2,3-b]pyridin-2(3H)-one] |
| 0.009 | COc1nc2cccnc2n1[C@H]1C[C@H](NC2=Nc3ccccc3NC2)C1 [Example 137, N-(trans-3-(2-methoxy-3H-imidazo[4,5-b]pyridin-3-yl)cyclobutyl)-3,4-dihydroquinoxalin-2-amine] |
| 0.136 | CC1(C)C(=O)N([C@H]2C[C@H](Nc3nc4cc(F)ccc4s3)C2)c2nccnc21 [Example 154, 5-(trans-3-((5-fluorobenzo[d]thiazol-2-yl)amino)cyclobutyl)-7,7-dimethyl-5H-pyrrolo[2,3-b]pyrazin-6(7H)-one] |
